Data on six compounds can be found in patent publication US6537670B1, “Bis(alkyleneoxybenzophenone) ultraviolet light absorbers” (Cytec Technology Corp., priority 2000, dated 2003).

Data set [1] can be described thus: Volatility of UV absorbers: Thermogravimetric Analysis (TGA) T-10% values. The format is physicochemical. The note with it: for T-10% (TGA, temperature required for 10% of the material to volatilize): Thermogravimetric Analysis. The text has this:
One approach that has been taken to reduce the loss of absorbers from polymeric substrates has been to increase their molecular weight, either by using an absorber with attached high molecular weight groups, or by adding a group which will bind two or more absorbing nuclei in the same molecule, thus increasing molecular weight. U.S. Pat. No. 4,278,589 provides an example of the former approach, and describes benzotriazoles with large groups attached at the 3- and 5-positions. Of the latter approach, benzophenones, benzotriazoles and other molecules have been dimerized to reduce volatility. U.S. Pat. Nos. 5,108,835 and 4,948,666 describe articles with capstock layers stabilized by 2-hydroxyphenylbenzotriazoles which are bridged by various groups. One structure encompassed by the description is a 2-hydroxyphenylbenzotriazole bridged by a methylene group in the 3-position. These materials have relatively low volatility, as measured by the high temperature required for 10% of the materials to volatilize during Thermogravimetric Analysis. This temperature, known as the TGA T-10% value, is approximately 365° C. for the methylenebis{(5-tert-octyl-2-hydroxyphenyl)benzotriazole} known commercially as LA-31, Mixxim BB-100 or Tinuvin 360 (supplied by Asahi Denka, Fairmount Chemical and Ciba Specialty Chemicals, respectively), versus a TGA T-10% value of 245° C. for the non-dimerized (5-tert-octyl-2-hydroxyphenyl)benzotriazole known commercially as CYASORB® UV-5411. Also described have been 2,4-dihydroxybenzophenones which are dimerized by attachment through the 4-oxygen by an ether bond to two carbons of an aliphatic group. Compounds of this type have been described in U.S. Pat. Nos. 3,580,927 and 3,666,713 and CZ Appl. 135,115, JP Sho 47-48888, JP Sho 44-26456 and GB 1, 296,240. Capstock articles stabilized by some of these compounds, and a method for preparing the same are described in U.S. Pat. Nos. 5,445,872 and 5,306,456. Descriptions of benzotriazoles and benzophenones bridged by attachment of other groups may be found in U.S. Pat. Nos. 5,589,529 and 4,859,726 (for benzotriazoles) and JP Sho 57-12643 (for benzophenones). Many of the compounds described above, while solving the problem of volatility, have other limitations, including low solubility and high initial color when processed into the plastic substrate.
Volatility of UV Absorbers
Thermogravimetric Analysis (TGA) T-10% Values

The nature of data set [2]: Weathering resistance of polycarbonate plaques, 12-Month Florida Data. The note with it: for % Weathering Resistance: 0.35% additive in Lexan 121 PC, 12-Month Florida Data, [1-YI(additive)YI of Blank] × 100. As for the experimental part: The performance of the additives was evaluated in comparison to the control (no stabilizer) by compounding into polycarbonate and studying the properties of the compounded plaques. Polycarbonate plaques were prepared by: (1) dry blending the additives at 0.35 weight % with GE Lexan 121-112 polycarbonate (2) extruding the blend in a Haake torque rheometer base using a 0.75 inch 25:1 single screw extruder −4 zone, single pass, at 50-65 RPM speed, with zone 1, zone 2, zone 3, and zone 4 temperatures at 265, 265, 270 and 275° C., respectively, (3) pulling through a water bath, (4) drying, (5) pelletizing, (6) redrying at 120° C. for 4-48 hours in a forced air oven, (7) injection molding in an Arburg ‘Allrounder’ hydraulic injection molder (2×2.5 0.100″ plaques). Temperatures used were as follows: nozzle, 275° C., nozzle side, 280° C., middle, 275° C., feed, 266° C., mold, 95° C. The plaques were irradiated in a Xenon Arc Weatherometer as described by ASTM G-26 Standard using Test Method B with alternate exposure to light and darkness and an intermittent exposure to water spray maintaining an atmosphere temperature of 63±3° C. and a relative humidity of 30±5% (Miami, Fla. conditions). Color (YI) was determined with a Macbeth Color Eye […] under Lab conditions with illuminate C, 2° observer, specular component excluded, and UV component included. Hydrolytic testing was performed by heating plaques with water at 120° C. for 6 hours in an All American Electric Pressure Sterilizer, Model No. 25×, measuring YI before and after treatment.
% Weathering Resistance of Plaques (0.35% Additive in Lexan® 121 PC)

A short description of data set [3]: Solubility of compounds in organic solvents. The note with it: 25° C.
Data set [4] is described as follows: Capstock weathering: Delta YI after xenon-arc weatherometer exposure. The note with it: 7% in Capstock PC-Lexan 105. The protocol: The performance of the compounds was evaluated in comparison to the control (no stabilizer) in a polycarbonate thin film laminated to an unstabilized polycarbonate plaque. The films were prepared by (1) dry blending the additives at 7 wt. % with Lexan 105 virgin flake and 0.1% Mark 2112 phosphite, (2) extruding the blend in a Haake torque rheometer base equipped with a 0.75 inch 25:1 single mixing screw extruder −4 zone, single pass at 55-65 rpm speed, with zone 1, zone 2, zone 3, and zone 4 temperatures at 246, 265, 295, and 304° C., respectively, (3) pulling through a water bath, (4) drying, (5) pelletizing, (6) redrying at 120° C. for 4-48 hours in a forced air oven, and (7) compression molding from compounded pellets into 2 mil films at 300° C. using a 30 second dwell hold without pressure, and a 30-second dwell hold with 35 kpsi pressure. […] The laminated sample plaques were exposed in the xenon-arc weatherometer as determined by ASTM G-26 Standard using Test Method B with alternate exposure to light and darkness and an intermittent exposure to water spray maintaining an atmosphere temperature of 63±3° C. and a relative humidity of 30±5% (Miami, Fla. conditions). Color (YI) was determined with a Macbeth Color Eye Colorimeter under Lab conditions with illuminate C, 2° observer, specular component excluded, and UV component included. […]

Structures are written as SMILES.

`CC(C)(C)CC(C)(C)c1ccc(O)c(-n2nc3ccccc3n2)c1` [Compound A, 2-(2′-hydroxy-5′-(1,1,3,3-tetramethylbutyl)phenyl)benzotriazole]: in data set [1], the “TGA T-10% value” is 245 °C and the “T-10% (TGA, temperature required for 10% of the material to volatilize)” value stood at 245 °C.
For `O=C(c1ccccc1)c1ccc(OCCO)cc1O` [Compound B, 2-hydroxy-4-(hydroxyethoxy)benzophenone], in data set [1], the “T-10% (TGA, temperature required for 10% of the material to volatilize)” value was determined as 257 °C.
Consider `CC(C)(c1ccccc1)c1cc(-n2nc3ccccc3n2)c(O)c(C(C)(C)c2ccccc2)c1` [Compound C, 2-(3′,5′-bis(α,α-dimethylbenzyl)-2′hydroxyphenyl)benzotriazole], for which, in data set [2], the “% Weathering Resistance” value turned out to be 71%. Moreover, in data set [1], the “T-10% (TGA, temperature required for 10% of the material to volatilize)” value amounted to 312 °C.
For `O=C(OCCOc1ccc(C(=O)c2ccccc2)c(O)c1)OCCOc1ccc(C(=O)c2ccccc2)c(O)c1` [Compound D, {2-(3′-hydroxy-4′-benzoylphenoxy)ethyl}carbonate], in data set [3], the “Solubility in 2-Butanone” value is listed as 2.69 g/100 g solvent and the “Solubility in Toluene” value worked out at 1.26 g/100 g solvent. In data set [3] (organic solvents), the “Solubility characteristics (in words)” value is on record as “excellent solubility characteristics”. In addition, the “Stability imparted (in words)” value in data set [4] is on record as “excellent stability”. Also, the “% Weathering Resistance” value in data set [2] worked out at 71%. Further, the “Stability imparted to the polycarbonate system (in words)” value in data set [2] (0.35% in Lexan 121 PC) is “excellent stability”. The “Volatility (in words)” value in data set [1] (TGA, compared with non-dimerized counterpart) was “lower volatility than its non-dimerized counterpart”. Besides, the “T-10% (TGA, temperature required for 10% of the material to volatilize)” value in data set [1] was 350 °C.
As to `O=C(c1ccccc1)c1ccc(OCCCCCCOc2ccc(C(=O)c3ccccc3)c(O)c2)cc1O` [Compound E, 1,6-bis(3′hydroxy-4′-benzoylphenoxy)hexane], in data set [3], the “Solubility in 2-Butanone” value worked out at 0.37 g/100 g solvent and the “Solubility in Toluene” value is listed as 0.52 g/100 g solvent. Also, in data set [2], the “% Weathering Resistance” value came to 69%. Moreover, in data set [1], the “T-10% (TGA, temperature required for 10% of the material to volatilize)” value worked out at 357 °C.
`CC(C)(C)CC(C)(C)c1cc(Cc2cc(C(C)(C)CC(C)(C)C)cc(-n3nc4ccccc4n3)c2O)c(O)c(-n2nc3ccccc3n2)c1` [Compound F]: in data set [2], the “% Weathering Resistance” value came out at 59%. For the same compound, in data set [1], the “TGA T-10% value” is “approximately 365 °C”.
